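Grown in 96-well plates, cells were treated for 48 hours with each compound at five concentrations. Insufficient inhibition: endpoint recorded as highest concentration tested. TGI: concentration producing complete growth inhibition.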
Columns and labels:
Experiment in all cases: growth of human tumour cells (NCI), 48 h
[1] = test system: MDA-MB-435
[2] = test system: SK-MEL-28 melanoma
[3] = test system: SR leukemia
[4] = test system: HCT-15 colon
[5] = test system: SNB-75 CNS
[6] = test system: LOX IMVI melanoma
[7] = test system: SK-OV-3 ovarian
[8] = test system: HT29 colon
[9] = test system: HOP-62 NSCLC
[10] = test system: RPMI-8226 leukemia

Question: `CC(C)Oc1cc2c(cc1O)CC[C@@H]1[C@@H]2CC[C@]2(C)[C@@H](O)CC[C@@H]12` was tested. Which TGI [1] did it give?
Answer: Its TGI is 10.9 µM.

Question: And the TGI [2]?
Answer: Its TGI is 56.6 µM.

Question: And the TGI [3]?
Answer: The TGI was 27.8 µM.

Question: And the TGI [4]?
Answer: Its TGI is 19.1 µM.

Question: And the TGI [5]?
Answer: The TGI was 53.1 µM.

Question: What about the TGI [6] of the same compound?
Answer: Its TGI is 18.3 µM.

Question: And the TGI [7]?
Answer: Its TGI is 48.3 µM.

Question: And the TGI [8]?
Answer: The TGI was 23 µM.

Question: What about the TGI [9] of the same compound?
Answer: The TGI was 18.1 µM.

Question: What about the TGI [10] of the same compound?
Answer: The TGI was 35.7 µM.

Question: `COC(=O)c1c(C)cccc1C1CN=NC12Cc1cccc(C)c1C2=O` (configuration not stated) was tested. Which TGI [1] did it give?
Answer: Its TGI is > 100 µM.

Question: What about the TGI [2] of the same compound?
Answer: Its TGI is > 100 µM.

Question: And the TGI [3]?
Answer: Its TGI is > 100 µM.

Question: What about the TGI [4] of the same compound?
Answer: The TGI was > 100 µM.

Question: And the TGI [5]?
Answer: Its TGI is > 100 µM.

Question: And the TGI [6]?
Answer: The TGI was 32.7 µM.

Question: What about the TGI [8] of the same compound?
Answer: Its TGI is > 100 µM.

Question: And the TGI [9]?
Answer: Its TGI is > 100 µM.

Question: What about the TGI [10] of the same compound?
Answer: The TGI was > 100 µM.

Question: Which results are given for `COC(CC1(CCNc2ccccc2)C(=O)N(COCC[Si](C)(C)C)c2ccccc21)OC` (configuration not stated)?
Answer: TGI [1]: 38.5 µM; TGI [2]: 30.1 µM; TGI [3]: > 100 µM; TGI [4]: 34.2 µM; TGI [5]: 14.3 µM; TGI [6]: 29.7 µM; TGI [7]: 30 µM; TGI [8]: 30 µM; TGI [9]: 28 µM; TGI [10]: > 100 µM

Question: For `NC(=O)CC[C@H]1C(=O)N=C(N)N1C(=O)OCc1ccccc1`, which TGI [1] is on record?
Answer: Its TGI is > 100 µM.

Question: And the TGI [2]?
Answer: Its TGI is > 100 µM.

Question: And the TGI [3]?
Answer: The TGI was > 100 µM.

Question: What about the TGI [4] of the same compound?
Answer: Its TGI is > 100 µM.

Question: What about the TGI [5] of the same compound?
Answer: Its TGI is > 100 µM.

Question: And the TGI [6]?
Answer: The TGI was > 100 µM.

Question: And the TGI [8]?
Answer: Its TGI is > 100 µM.

Question: What about the TGI [9] of the same compound?
Answer: The TGI was > 100 µM.

Question: And the TGI [10]?
Answer: Its TGI is > 100 µM.

Question: Which TGI [1] does the source give for `COc1ccc(C2C3=CONC3CC3CCCCC32)cc1` (configuration not stated) here?
Answer: Its TGI is > 100 µM.

Question: What about the TGI [2] of the same compound?
Answer: The TGI was > 100 µM.

Question: And the TGI [3]?
Answer: The TGI was > 100 µM.

Question: And the TGI [5]?
Answer: The TGI was > 100 µM.

Question: What about the TGI [6] of the same compound?
Answer: The TGI was > 100 µM.

Question: And the TGI [8]?
Answer: Its TGI is > 100 µM.

Question: And the TGI [9]?
Answer: Its TGI is > 100 µM.

Question: And the TGI [10]?
Answer: The TGI was > 100 µM.

Question: Which results are given for `C=C(C)[C@@H]1CC[C@]2(C(=O)OC3OC(COC4OC(CO)C(OC5OC(C)C(O)C(O)C5O)C(O)C4O)C(O)C(O)C3O)CC[C@]3(C)[C@H](CC[C@@H]4[C@@]5(C)CC[C@H](O)[C@@](C)(CO)[C@@H]5CC[C@]43C)[C@@H]12` (some centres not stated)?
Answer: TGI [1]: > 10 µM; TGI [2]: > 10 µM; TGI [3]: > 4.48 µM; TGI [4]: > 9.68 µM; TGI [5]: > 10 µM; TGI [6]: > 8.27 µM; TGI [7]: > 8.62 µM; TGI [8]: > 10 µM; TGI [9]: > 10 µM; TGI [10]: > 5.92 µM

Question: Which results are given for `CCCC(CC)c1cc(O)c(O)cc1C(CC)CCC` (configuration not stated)?
Answer: TGI [1]: > 10 µM; TGI [2]: > 10 µM; TGI [3]: > 10 µM; TGI [4]: > 10 µM; TGI [5]: > 10 µM; TGI [6]: > 10 µM; TGI [7]: > 10 µM; TGI [8]: > 10 µM; TGI [9]: > 10 µM; TGI [10]: > 10 µM

Question: How did the TGI [1] turn out when `CC1Cc2c(cc(N)nc2Br)NC1=O` (configuration not stated) was run?
Answer: Its TGI is > 100 µM.

Question: And the TGI [2]?
Answer: The TGI was > 100 µM.

Question: And the TGI [3]?
Answer: The TGI was > 100 µM.

Question: What about the TGI [4] of the same compound?
Answer: Its TGI is > 100 µM.

Question: What about the TGI [5] of the same compound?
Answer: The TGI was > 100 µM.

Question: And the TGI [6]?
Answer: Its TGI is > 100 µM.

Question: And the TGI [7]?
Answer: The TGI was > 100 µM.

Question: And the TGI [8]?
Answer: Its TGI is > 100 µM.

Question: And the TGI [9]?
Answer: The TGI was > 100 µM.

Question: And the TGI [10]?
Answer: The TGI was > 100 µM.

Question: Which TGI [1] does the source give for `Cc1cc(C)c(C#N)c(SC(=S)NC(=O)c2ccccc2)n1` here?
Answer: The TGI was > 100 µM.

Question: And the TGI [2]?
Answer: Its TGI is > 100 µM.

Question: What about the TGI [3] of the same compound?
Answer: The TGI was > 100 µM.

Question: What about the TGI [4] of the same compound?
Answer: Its TGI is > 100 µM.

Question: What about the TGI [5] of the same compound?
Answer: The TGI was > 100 µM.

Question: And the TGI [8]?
Answer: Its TGI is > 100 µM.

Question: What about the TGI [9] of the same compound?
Answer: Its TGI is > 100 µM.

Question: And the TGI [10]?
Answer: Its TGI is > 100 µM.

Question: How did the TGI [1] turn out when `O=P1(N(CCCl)CCCl)NCCCO1` (configuration not stated) was run?
Answer: Its TGI is > 250 µM.

Question: And the TGI [2]?
Answer: The TGI was > 250 µM.

Question: What about the TGI [3] of the same compound?
Answer: The TGI was > 250 µM.

Question: And the TGI [4]?
Answer: The TGI was > 250 µM.

Question: And the TGI [5]?
Answer: Its TGI is > 250 µM.

Question: And the TGI [6]?
Answer: The TGI was > 250 µM.

Question: And the TGI [7]?
Answer: The TGI was > 250 µM.

Question: And the TGI [8]?
Answer: Its TGI is > 231 µM.

Question: And the TGI [9]?
Answer: The TGI was > 250 µM.

Question: What about the TGI [10] of the same compound?
Answer: Its TGI is > 250 µM.

Question: With `COC(C[C@H]1CCCC[C@]1(O)/C(=C\CO[Si](C(C)C)(C(C)C)C(C)C)Sc1ccccc1)OC` as the compound, how does the TGI [1] read?
Answer: Its TGI is > 100 µM.

Question: And the TGI [2]?
Answer: The TGI was > 100 µM.

Question: What about the TGI [3] of the same compound?
Answer: Its TGI is 46.5 µM.

Question: What about the TGI [4] of the same compound?
Answer: The TGI was 60 µM.

Question: And the TGI [5]?
Answer: The TGI was 98.9 µM.

Question: And the TGI [6]?
Answer: Its TGI is 37.5 µM.

Question: What about the TGI [7] of the same compound?
Answer: The TGI was > 100 µM.

Question: What about the TGI [8] of the same compound?
Answer: Its TGI is > 100 µM.

Question: What about the TGI [9] of the same compound?
Answer: The TGI was > 100 µM.

Question: And the TGI [10]?
Answer: Its TGI is 38.4 µM.

Question: How did the TGI [1] turn out when `COC(=O)NC(Nc1ccc(C)cc1)(C(F)(F)F)C(F)(F)F` was run?
Answer: Its TGI is > 100 µM.

Question: And the TGI [2]?
Answer: Its TGI is > 100 µM.

Question: And the TGI [3]?
Answer: Its TGI is > 100 µM.

Question: What about the TGI [4] of the same compound?
Answer: The TGI was > 100 µM.

Question: What about the TGI [5] of the same compound?
Answer: Its TGI is > 100 µM.

Question: What about the TGI [6] of the same compound?
Answer: Its TGI is > 100 µM.

Question: And the TGI [7]?
Answer: The TGI was > 100 µM.

Question: What about the TGI [8] of the same compound?
Answer: The TGI was > 100 µM.

Question: And the TGI [9]?
Answer: Its TGI is > 100 µM.

Question: What about the TGI [10] of the same compound?
Answer: The TGI was > 100 µM.

Question: What does the source list for `CCC(=O)Nc1ccc(N2C(=O)/C(=C/c3ccc(O)c(OC)c3)N=C2c2ccccc2)cc1`?
Answer: TGI [1]: > 100 µM; TGI [2]: > 100 µM; TGI [3]: > 100 µM; TGI [4]: > 100 µM; TGI [5]: > 100 µM; TGI [6]: > 100 µM; TGI [7]: > 100 µM; TGI [8]: > 100 µM; TGI [9]: > 100 µM; TGI [10]: > 100 µM

Question: Which results are given for `O=C1Sc2cc3ccccc3cc2C(=O)Sc2cc3ccccc3cc21`?
Answer: TGI [1]: > 100 µM; TGI [2]: > 85.4 µM; TGI [3]: 9.27 µM; TGI [4]: 90.7 µM; TGI [5]: > 100 µM; TGI [6]: 48.1 µM; TGI [7]: > 100 µM; TGI [8]: > 90.5 µM; TGI [9]: > 85.2 µM; TGI [10]: > 24.6 µM

Question: Which results are given for `CC(=O)c1cc(S(=O)(=O)c2ccc(O)c(C(C)=O)c2)ccc1O`?
Answer: TGI [1]: > 100 µM; TGI [2]: > 100 µM; TGI [3]: > 100 µM; TGI [4]: > 100 µM; TGI [6]: > 100 µM; TGI [7]: > 100 µM; TGI [8]: > 100 µM; TGI [9]: > 100 µM; TGI [10]: > 100 µM

Question: How did the TGI [1] turn out when `Cc1ccc(C2(N3CCOCC3)OC(C)(C)c3cccc4cccc2c34)cc1` (configuration not stated) was run?
Answer: Its TGI is 32.6 µM.

Question: What about the TGI [3] of the same compound?
Answer: Its TGI is > 100 µM.

Question: What about the TGI [4] of the same compound?
Answer: The TGI was 40 µM.

Question: What about the TGI [5] of the same compound?
Answer: The TGI was 30.5 µM.

Question: What about the TGI [6] of the same compound?
Answer: Its TGI is 31 µM.

Question: What about the TGI [7] of the same compound?
Answer: Its TGI is 31.2 µM.

Question: And the TGI [8]?
Answer: Its TGI is 31.8 µM.

Question: And the TGI [9]?
Answer: The TGI was 32.9 µM.

Question: What about the TGI [10] of the same compound?
Answer: The TGI was 37.9 µM.

From PubChem BioAssay (NCI)
